Assays:
concanavalin A (Con A) = molecular target: T1, concanavalin A (Con A) (Canavalia ensiformis, UniProt P02866); assay: Inhibition of Con A induced erythrocyte agglutination (hemagglutination inhibition assay); assay type: cell-based
T1 construct: purchased Calbiochem
Method: To assess the activity of our polymers, we compared the ability of the polymer to inhibit erythrocyte agglutination by Con A with that of several controls including the monovalent carbohydrate derivative methyl-α-D-glucopyranoside and the divalent-glucose substituted 7-oxanorbornene 3.
The agglutination inhibition assays were performed according to standard protocols. (Osawa, et al., Methods Enzymol. 28:323-327, 1972.) The assay was as follows: Pure lyophilized Con A was dissolved in HEPES buffer with 100 mM CaCl2, pH 8.0, and dialyzed into phosphate buffered saline (PBS, 25 mM sodium phosphate, 0.15M NaCl), pH 7.2, for the assay. Protein solution concentration was estimated from UV absorbance measurements at 280 nm.
Rabbit red blood cells were stored as a 10% suspension in Alsever's solution and washed 3× with PBS before the assay. For the assay, the cells were pelleted and resuspended in PBS with 0.5% bovine serum albumin.
Polymeric inhibitors were purified by precipitation or by gel filtration. The inhibition results obtained for compounds purified by either method were consistent. The minimum concentration of inhibitor required to inhibit four hemagglutinating doses of Con A was determined. After preincubation with the inhibitor, a 2% suspension of erythrocytes was added. The samples were examined for agglutination after 1 hour at room temperature.
Substrates were incubated with four agglutinating doses of Con A, prior to the addition of rabbit erythrocytes. The concentration of glucose moieties in solution required for inhibition was determined for each substrate within a two-fold dilution.

L-selectin = assay: ELISA: inhibition of L-selectin-IgG binding to immobilized GlyCAM-1
Method: (§1) The affinity of compounds 8, 9 and 10 for each selectin were tested in an ELISA assay that compares their ability to inhibit binding of the selectins to immobilized GlyCAM-1. Because all of the selectins bind to GlyCAM-1 (FIG. 4) this assay provides insight into the relative affinities and specificities of the identified GlyCAM-1 component for each selectin.
(§2) The ELISAs were executed by the following protocol: An antibody to GlyCAM-1 was immobilized in a microtiter well. GlyCAM-1 was added. Selectin-IgG chimeras, which were biotinylated, were added to streptavidin-alkaline phosphatase conjugate. The binding of the selectin-IgGbiotin .cndot.strepavidin-alkaline phosphatase to GlyCAM-1 was monitored by UV. Para-nitrophenolate is produced from alkaline phosphatase catalyzed hydrolysis of paranitrophenolphosphate (Qed). The inhibitory effects of saccharides 8-10 on selectin-IgG binding to immobilized GlyCAM-1 were measured by this method.

P-selectin = assay: ELISA: inhibition of P-selectin-IgG binding to immobilized GlyCAM-1; settings: compared among 8, 9, 10
Method: as §1, §2

Con A = settings: cited from earlier work
E-selectin = assay: ELISA: inhibition of E-selectin-IgG binding to immobilized GlyCAM-1; settings: compared among 8, 9, 10
Method: as §1, §2

[1] = Table 2, four agglutinating doses of Con A, rabbit erythrocytes, 1 hour at room temperature, pH 7.2, within a two-fold dilution

CO[C@H]1O[C@H](CO)[C@@H](O)[C@H](O)[C@H]1O [methyl-α-D-glucopyranoside, reference compound]
Inhibiting Dose [carbohydrate residues] (concanavalin A (Con A); [1]): 0.05 M

CO[C@H]1O[C@H](CO)[C@@H](O)[C@H](O)[C@@H]1O [methyl-α-D-mannopyranoside, reference compound]
Inhibiting Dose [carbohydrate residues] (concanavalin A (Con A); Table 3, hemagglutination inhibition assay, mono- and multivalent carbohydrate derivatives): 0.05 M

CCCO[C@@H]1O[C@H](CO)[C@@H](O[C@@H]2O[C@@H](C)[C@@H](O)[C@@H](O)[C@@H]2O)[C@H](O[C@@H]2O[C@H](COS(=O)(=O)O)[C@H](O)[C@H](O)[C@H]2O)[C@H]1O [Compound 9]
IC50 for preventing L-selectin binding (in words) (L-selectin): in the mmolar range
relative effectiveness at blocking P-selectin binding (in words) (P-selectin): slightly better

mannose
binding to Con A (in words), calorimetric data (Con A; compared with glucose): slightly higher affinity

O=C(OCCC1OC(CO)C(O)C(O)C1O)C1C2C=CC(O2)C1C(=O)OCCC1OC(CO)C(O)C(O)C1O (centres unmarked) [7-oxanorbornene 3]
Inhibiting dose compared with methyl-α-D-glucopyranoside (in words) (concanavalin A (Con A)): comparable
Inhibiting Dose [carbohydrate residues] (concanavalin A (Con A); [1]): 0.025 M

fucose
binding of fucose to Con A (in words) (Con A; Goldstein 1976): does not bind

CCCO[C@@H]1O[C@H](CO)[C@@H](O[C@@H]2O[C@@H](C)[C@@H](O)[C@@H](O)[C@@H]2O)[C@H](O[C@@H]2O[C@H](CO)[C@H](O)[C@H](OS(=O)(=O)O)[C@H]2O)[C@H]1O [Compound 8]
IC50 for preventing L-selectin binding (in words) (L-selectin): in the mmolar range
relative effectiveness in binding to E-selectin (in words) (E-selectin): considerably more effective than the 6-sulfate 9 or the 3,6-disulfate 10
relative effectiveness at blocking P-selectin binding (in words) (P-selectin): the worst at blocking binding

CCCO[C@@H]1O[C@H](CO)[C@@H](O[C@@H]2O[C@@H](C)[C@@H](O)[C@@H](O)[C@@H]2O)[C@H](O[C@@H]2O[C@H](COS(=O)(=O)O)[C@H](O)[C@H](OS(=O)(=O)O)[C@H]2O)[C@H]1O [Compound 10]
IC50 for preventing L-selectin binding (in words) (L-selectin): in the mmolar range
relative binding to L-selectin (in words) (L-selectin; compared among 8, 9, 10): bound no more tightly to L-selectin than the 3- and 6-sulfo analogs 8 and 9
relative effectiveness at blocking P-selectin binding (in words) (P-selectin): the most active
